Test [1] concerns mild to moderate severity Alzheimer's patients (MMSE=14-26). In words: ADAS-cog11 score change in Alzheimer's patients after 14-day treatment. It is filed as in vivo, human. As to the method: ADAS-cog11 score change from day 1 to day 14 (D1-D14), the end of 2-week treatment is compared to the ADAS-cog 1 from day 1 to day 21 (D1-D21), 7-days post treatment follow-up. With ADAS-cog 1 test scoring a greater negative score denotes greater cognitive improvement. Drug treatment of mild to moderate severity Alzheimer's patients (MMSE=14-26) with T3D-959 was for 14 days q.d. at 3 mg, 10 mg, 30 mg or 90 mg (n=number of subjects evaluable at each dose).

Test [2] has as its system intracerebral (i.c.) Streptozotocin (STZ) rat model of Alzheimer's disease. In words: Intracerebral Streptozotocin rat model of Alzheimer's disease, Morris Water Maze testing. It is filed as in vivo, Long Evans rats. To be noted: 0.25 mg/kg oral gavage every other day for 14 days; control and STZ rats; tested 11 days post-dosing. On the procedure: The experimental rat model of Alzheimer's disease used in Table 7 involves intracerebral (i.c.) treatment with Streptozotocin (STZ), to cause brain metabolic dysfunction and insulin resistance as occurs in human sporadic Alzheimer' disease, with minimal or no systemic side-effects. Long Evans 4-week old male and female rats (8-12/group) were anesthetized by intraperitoneal (i.p.) injection of ketamine (100 mg/kg) plus xylazine (10 mg/kg). After shaving and cleaning (betadine x2 followed by 70% ethanol) the scalps, the rats were positioned in a stereotaxic frame and a midline incision was made. With subcutaneous tissue and skeletal muscle separated and retracted with small surgical hooks, the bregma and lambda areas were cleaned with 3% H2O2 soaked cotton swabs. […]
T3D-959 administration (0.25 mg/kg) to control and STZ rats was by oral gavage every other day for a period of 14-days. […] The latency to locate the platform was measured. Spatial memory and orientation were assessed by requiring the rat to locate the hidden platform from different entry points in the maze. […]
Data were analyzed by first calculating area under curves for each set of 3 trials, then averaging the AUC results within-group. […] Data were analyzed by 1-way ANOVA with Fisher post-tests. […]

Each structure is given as a SMILES string.

For the molecule `CCc1oc(-c2ccc(OC)cc2)nc1CCOc1ccc2c(c1)CC[C@H]2CC(=O)[O-].[Na+]` [Example T3D-959], in test [1] (10 mg cohort, 14 days q.d.), the “subjects who exhibited an improved ADAS-cog11 test score” value is listed as 5 of 9. In addition, the “ADAS-cog11 score change D1-D14 compared to D1-D21” value in test [1] (14 days q.d. at 3 mg, 10 mg, 30 mg or 90 mg, D21 = 7-days post treatment follow-up) is “cognitive improvement lasting beyond the end of treatment”. In addition, in test [2], the “Morris Water Maze latency to locate the platform (spatial localization and memory, AUC of trials)” value is listed as “benefited control as well as STZ-exposed rats”.
